This note sets out measurements from patent US20180201650A1 (BGI SHENZHEN, priority 2014, published 2018).

The test system of the experiment is HVA calcium channel. The experiment is classed as cell-based, rat.

For `COC(=O)C1=C(C)NC(C)=C(C(=O)OC)C1c1ccccc1[N+](=O)[O-]` [Nifedipine, reference compound], the “current after loading (pA)” value is listed as −734.31 pA and the “current before loading (pA)” value is listed as −1471.35 pA. Also, under “10 μM”, the “inhibition rate (%)” value is 50.09%.
